In brackets after ≈: the same amount, converted by molar mass. Like-named read-outs stand apart in the source and are kept apart here.

The data set can be described thus: solubility of beta-carotene in potential solvents. The settings on record: for solubility: organic solvent or mixture. It is filed as physicochemical. The text has this: The present invention is based, at least in part, on the discovery that one or more solvents such as tetrahydrofuran (THF), can be employed to form an improved cochleate with fragile nutrients such as beta-carotene at desirable concentrations. Suitable solvents and solvent mixtures that can be employed in connection with the present invention and can readily be identified by a person of skill in the art employing the teachings provided herein and knowledge in the art. For example, beta-carotene was added to a variety of potential solvents, and was found not soluble in either water or DMSO, and slightly soluble in methyl pyrrolidone (less than 1 mg/ml). Heptane also was considered, but heptane is not miscible with water and thus cannot readily be employed in the formation of cochleates. […] Similarly, solvents can be identified for other fragile nutrients and lipids in accordance with the present invention.

Regarding `CC1=C(/C=C/C(C)=C/C=C/C(C)=C/C=C/C=C(C)/C=C/C=C(C)/C=C/C2=C(C)CCCC2(C)C)C(C)(C)CCC1` [beta-carotene], the solubility (solvent methyl pyrrolidone, slightly soluble, read-out: solubility in methyl pyrrolidone) was below 1000 µg/mL and the solubility (solvent tetrahydrofuran (THF), read-out: solubility in THF) came to 10000 µg/mL (≈ 18.6 mM). Moreover, the “solubility in DMSO” value (solvent DMSO) is “not soluble”. The solubility in water result (solvent water) is on record as “not soluble”.

As a reminder, the solubility is the concentration that dissolves in the medium under given conditions.

Values taken from patent US20050008686A1, “Cochleate preparations of fragile nutrients” (priority 2003, published 2005).
